Experimental data reported in patent publication US20250057866A1, “A SYNERGISTIC PHARMACEUTICAL COMPOSITION AND ITS ANTIVIRAL USE” (priority 2022, published 2025).
Where two headings read alike, the source gives them in different places.

Test system: virus (0.01 MOI) in Vero-E6 cells
Experiment: In vitro antiviral activity EC50 assay (CCK8, 48 h, 0.01 MOI virus in Vero-E6 cells)
Type: cell-based
Details: combination mol./mol.=1/1, combined total concentration
Description: • 1) Vero-E6 cells were digested and passaged. The cells were adjusted to a density of 1×10^5 cells/mL with DMEM containing 10% FBS, then seeded in a 96-well plate (100 μl/well), and incubated in a 35° C., 6% CO2 incubator for 20 h; • 2) Compound 1 and Compound 2 (mol./mol.=1/1) were diluted with DMEM containing 1% FBS to provide compositions with combined total concentrations (Compound 1+Compound 2) of 200 μM, 60 μM, 20 μM, 6 μM, 2 μM, 0.6 μM, 0.2 μM, 0.06 μM, and 0.02 μM; • 3) The culture medium in each well was removed, and the 96-well plate was marked on its lid, washed three times with 1×PBS, and 100 μL of dilutions of the compositions prepared above was added to each well, followed by 100 μL of a 0.01 multiplicity of infection (MOI) virus solution, so as to obtain final combined total concentrations of the compounds (Compound 1+Compound 2) at 100 μM, 30 μM, 10 μM, 3 μM, 1 μM, 0.3 μM, 0.1 μM, 0.03 μM, 0.01 μM. The 96-well plate, including a cell control group and a virus control group, was then incubated in a 35° C., 6% CO2 incubator; • 4) After 48 h, the cell viability was tested with a CCK8 kit.

| Structure (SMILES) | EC50 (Vero C1008, 48 h) | EC50 (read-out: EC50) |
| --- | --- | --- |
| [2H]C(OC(=O)C(C)C)[C@H]1O[C@@H](n2ccc(NO)nc2=O)[C@H](O)[C@@H]1O (stereo partly drawn) [Compound 2, ((2R, 3S, 4R, 5R)-3,4-dihydroxy-5-(4-(hydroxylamino)-2-oxopyrimidin-1 (2H)-yl)tetrahydrofuran-2-yl) deuterated methyl isobutyl ester] | 1560 nM | 1720 ± 585 nM |
| [2H]C1([2H])C[C@@H](C[C@@H](C#N)NC(=O)[C@@H]2[C@@H]3[C@H](CN2C(=O)[C@@H](NC(=O)C(F)(F)F)C(C)(C)C)C3(C)C)C(=O)N1 [Compound 1] | 1720 nM | 1560 ± 576 nM |
